Broadly, the IC50 is the point on the concentration scale where inhibition reaches its midpoint.

T1 sequence (O60674 808-1132): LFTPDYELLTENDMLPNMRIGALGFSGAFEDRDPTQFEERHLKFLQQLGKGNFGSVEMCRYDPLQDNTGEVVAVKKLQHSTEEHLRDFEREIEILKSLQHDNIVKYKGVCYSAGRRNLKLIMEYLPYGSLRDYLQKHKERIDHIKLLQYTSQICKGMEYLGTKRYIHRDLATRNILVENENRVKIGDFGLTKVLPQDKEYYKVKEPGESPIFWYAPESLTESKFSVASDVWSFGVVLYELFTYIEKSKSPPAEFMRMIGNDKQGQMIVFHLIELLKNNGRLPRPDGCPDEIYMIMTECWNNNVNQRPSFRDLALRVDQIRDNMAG

This assay has as its target T1, GST-JAK2(808-1132) (Homo sapiens, UniProt O60674).
T1 construct: GST-JAK2(808-1132); purchased Invitrogen (Carlsbad, USA) #4288
Nature of the assay: JAK2 kinase assay (Caliper mobility shift, LabChip 3000). In kind it is biochemical. From the text:
All four kinases of the JAK/TYK-kinase family were used as purified recombinant GST-fusion proteins, containing the active kinase domains. GST-JAK1 (866-1154), GST-JAK3(811-1124), and GST-TYK2(888-1187) were expressed and purified by affinity chromatography at the EPK biology unit. GST-JAK2(808-1132) was purchased from Invitrogen (Carlsbad, USA, #4288).
The kinase assays were based on the Caliper mobility shift assay using the LabChip 3000 systems. This technology is similar to capillary electrophoresis and uses charge driven separation of substrate and product in a microfluidic chip.
All kinase reactions were performed in 384 well microtiter plates in a total reaction volume of 18 μl. The assay plates were prepared with 0.1 μl per well of test compound in the appropriate test concentration, as described under the section “preparation of compound dilutions”. The reactions were started by combining 9 μl of substrate mix (consisting of peptide and ATP) with 9 μl of kinase dilution. The reactions were incubated for 60 minutes at 30° C. and stopped by adding 70 μl of stop buffer (100 mM Hepes, 5% DMSO, 0.1% Coating reagent, 10 mM EDTA, 0.015% Brij 35).
Fluorescently labeled synthetic peptides were used as substrates in all reactions. A peptide derived from the sequence of IRS-1(IRS-1 peptide, SEQ ID NO: 1 FITC-Ahx-KKSRGDYMTMQIG-NH2) was used for JAK1 and TYK2 and a peptide named JAK3tide SEQ ID NO: 2 (FITC-GGEEEEYFELVKKKK-NH2) for JAK2 and JAK3. Specific assay conditions are described in Table1:
The terminated reactions were transferred to the Caliper LabChip 3000 reader and the turnover of each reaction was measured by determining the substrate/product ratio.
Test compounds were dissolved in DMSO (10 mM) and transferred into 1.4 mL flat bottom or V-shaped Matrix tubes carrying a unique 2D matrix chip by individual compound hubs. The numbers of these chips were distinctively linked to the individual compound identification numbers. The stock solutions were stored at −20° C. if not used immediately. For the test procedure the vials were defrosted and identified by a scanner whereby a working sheet was generated that guided the subsequent working steps. Compound dilutions were made in 96 well plates. This format enabled the assay of maximally 40 individual test compounds at 8 concentrations (single points) including 4 reference compounds. The dilution protocol included the production of pre-dilution plates, master plates and assay plates:
Pre-dilution plates: 96 polypropylene well plates were used as pre-dilution plates. A total of 4 pre-dilution plates were prepared including 10 test compounds each on the plate positions A1-A10, one standard compound at A11 and one DMSO control at A12. All dilution steps were done on a HamiltonSTAR robot.
Master plates: 100 μL of individual compound dilutions including standard compound and controls of the 4 “pre-dilution plates” were transferred into a 384 “master plate” including the following concentrations 1,820, […], 182, 54.6, 18.2, 5.46, 1.82 and 0.546 μM, respectively in 90% of DMSO.
Assay plates: Identical assay plates were then prepared by pipetting 100 nL each of compound dilutions of the master plates into 384-well “assay plates”. In the following the compounds were mixed with 9 μL of assays components plus 9 μL enzyme corresponding to a 1:181 dilution steps enabling the final concentration of 10, 3.0, 1.0, 0.3, 0.1, 0.03, 0.01 and 0.003 μM, respectively. The preparation of the master plates were handled by the Matrix PlateMate Plus robot and replication of assay plates by the HummingBird robot.
With `CS(=O)(=O)c1ccc(-n2ccc3cnc(Nc4cccc(OCCN5CCOCC5)c4)nc32)cc1` [Example 35, [7-(4-Methanesulfonyl-phenyl)-7H-pyrrolo[2,3-d]pyrimidin-2-yl]-[3-(2-morpholin-4-yl-ethoxy)-phenyl]-amine], the IC50 amounted to 4.9 nM.

`CS(=O)(=O)c1ccc(-n2ccc3cnc(Nc4ccc(N5CCNCC5)cc4)nc32)cc1` [Example 37, [7-(4-Methanesulfonyl-phenyl)-7H-pyrrolo[2,3-d]pyrimidin-2-yl]-(4-piperazin-1-yl-phenyl)-amine]: the IC50 was < 3 nM.

In the case of `CN1CCN(Cc2ccc(Nc3ncc4ccn(-c5ccc(S(C)(=O)=O)cc5)c4n3)cc2)CC1` [Example 38, [7-(4-Methanesulfonyl-phenyl)-7H-pyrrolo[2,3-d]pyrimidin-2-yl]-[4-(4-methyl-piperazin-1-ylmethyl)-phenyl]-amine], the IC50 worked out at 4.5 nM.

For `CC(C)(C)OC(=O)N1CCN(Cc2ccc(Nc3ncc4ccn(-c5ccc(S(C)(=O)=O)cc5)c4n3)cc2)CC1` [Example 45, 4-{4-[7-(4-Methanesulfonyl-phenyl)-7H-pyrrolo[2,3-d]pyrimidin-2-ylamino]-benzyl}-piperazine-1-carboxylic acid tert-butyl ester], the IC50 came out at 6.1 nM.

Consider `CC(C)(C)OC(=O)N1CCCC1c1ccc(Nc2ncc3ccn(-c4ccc(S(C)(=O)=O)cc4)c3n2)cc1` (stereo not drawn) [Example 46, 2-{4-[7-(4-Methanesulfonyl-phenyl)-7H-pyrrolo[2,3-d]pyrimidin-2-ylamino]-phenyl}-pyrrolidine-1-carboxylic acid tert-butyl ester], for which the IC50 came to 38 nM.

As for `CS(=O)(=O)c1ccc(-n2ccc3cnc(Nc4ccc(C(=O)NCCO)cc4)nc32)cc1` [Example 51, N-(2-Hydroxy-ethyl)-4-[7-(4-methanesulfonyl-phenyl)-7H-pyrrolo[2,3-d]pyrimidin-2-ylamino]-benzamide], the 50% inhibitory concentration (IC50) was < 3 nM.

With `CS(=O)(=O)c1ccc(-n2ccc3cnc(Nc4ccc(CN5CCNCC5)cc4)nc32)cc1` [Example 52, [7-(4-Methanesulfonyl-phenyl)-7H-pyrrolo[2,3-d]pyrimidin-2-yl]-(4-piperazin-1-ylmethyl-phenyl)-amine], the IC50 is < 3 nM.

As to `CS(=O)(=O)c1ccc(-n2ccc3cnc(Nc4ccc(F)cc4)nc32)cc1` [Example 55, (4-Fluoro-phenyl)-[7-(4-methanesulfonyl-phenyl)-7H-pyrrolo[2,3-d]pyrimidin-2-yl]-amine], the IC50 was 20 nM.

With `CCN1CCCC1CNC(=O)c1ccc(-n2ccc3cnc(Nc4ccc(F)cc4)nc32)cc1` (stereo not drawn) [Example 63, N-(1-Ethyl-pyrrolidin-2-ylmethyl)-4-[2-(4-fluoro-phenylamino)-pyrrolo[2,3-d]pyrimidin-7-yl]-benzamide], the IC50 is 73 nM.

Regarding `CC(C)(C)OC(=O)N1CCN(C(=O)c2ccc(Nc3ncc4ccn(-c5ccc(S(C)(=O)=O)cc5)c4n3)cc2)CC1` [Example 69, 4-{4-[7-(4-Methanesulfonyl-phenyl)-7H-pyrrolo[2,3-d]pyrimidin-2-ylamino]-benzoyl}-piperazine-1-carboxylic acid tert-butyl ester], the IC50 was 4.8 nM.

Take `Fc1cc(-n2ccc3cnc(Nc4cccc(CN5CCOCC5)c4)nc32)cc(F)c1CN1CCOCC1` [Example 198, [7-(3,5-Difluoro-4-morpholin-4-ylmethyl-phenyl)-7H-pyrrolo[2,3-d]pyrimidin-2-yl]-(3-morpholin-4-ylmethyl-phenyl)-amine]: the IC50 is < 3 nM.

As for `CN1CCN(Cc2ccc(Nc3ncc4ccn(-c5cc(F)c(CN6CCOCC6)c(F)c5)c4n3)cc2C(F)(F)F)CC1` [Example 200, [7-(3,5-Difluoro-4-morpholin-4-ylmethyl-phenyl)-7H-pyrrolo[2,3-d]pyrimidin-2-yl]-[4-(4-methyl-piperazin-1-ylmethyl)-3-trifluoromethyl-phenyl]-amine], the IC50 is 3.7 nM.

The record behind these values is patent publication US8420657B2 (Novartis AG, priority 2008, dated 2013).
